Assay in all cases: In vitro antibacterial activity, broth microdilution MIC90
What all share (format): cell-based

One assay concerns Enterococcus faecalis. Summed up:
(§1)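 Broth microdilution per CLSI M7-A5 guidelines, run against a 12-strain panel of staphylococci, enterococci and Moraxella catarrhalis. Final test compound concentrations spanned 0.063 to 128 μg/mL with 2.5% (V/V) DMSO as excipient; linezolid served as control.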

The test system of a further assay is Enterococcus faecium. Summed up:
as §1

The test system of assay [1] is Linezolid and Vancomycin Resistant Enterococcus faecalis. The essentials: as §1
The subject of assay [2] is Linezolid and Vancomycin Resistant Enterococcus faecium (strain 10). Summed up: as §1
Assay [3] concerns Linezolid and Vancomycin Resistant Enterococcus faecium (strain 11). Summed up:
as §1

In assay [4] the test system is Methicillin Resistant Staphylococcus aureus. The essentials: as §1
The subject of assay [5] is Methicillin Resistant Staphylococcus epidermidis. Summed up:
as §1

The test system of another assay is Moraxella catarrhalis. The essentials:
as §1

The next assay concerns Staphylococcus aureus. Summed up: as §1
Assay [6] concerns Staphylococcus epidermidis. The essentials:
as §1

The test system of assay [7] is Vancomycin Resistant Enterococcus faecalis. Summed up:
as §1

Assay [8] concerns Vancomycin Resistant Enterococcus faecium. The essentials:
as §1

The mark [9] stands for this setting: Enterococcus faecalis, strain 5, E. faecalis, read-out: MIC90.
The mark [10] stands for this setting: Enterococcus faecium, strain 8, E. faecium, read-out: MIC90.
Setting [11] is: Enterococcus faecalis, strain 7, E. faecalis VanA LR, read-out: MIC90.
Where [12] appears, read: Enterococcus faecium, strain 10, E. faecium VanA LR, read-out: MIC90.
The mark [13] stands for this setting: Enterococcus faecium, strain 11, E. faecium VanA LR, read-out: MIC90.
Setting [14] is: Staphylococcus aureus, strain 2, S. aureus MR, read-out: MIC90.
[15] abbreviates: Staphylococcus epidermidis, strain 4, S. epidermidis MR, read-out: MIC90.
Where [16] appears, read: Moraxella catarrhalis, strain 12, M. catarrhalis, read-out: MIC90.
[17] abbreviates: Staphylococcus aureus, strain 1, S. aureus, read-out: MIC90.
The mark [18] stands for this setting: Staphylococcus epidermidis, strain 3, S. epidermidis, read-out: MIC90.
Where [19] appears, read: Enterococcus faecalis, strain 6, E. faecalis VanA, read-out: MIC90.
[20] abbreviates: Enterococcus faecium, strain 9, E. faecium VanA, read-out: MIC90.

The structures appear in SMILES notation. Values after ≈ are worked out from the molar mass of the structure shown. Read-outs that look alike come from different tables or passages of the source.

As a reminder, the MIC90 is the lowest concentration that inhibits either 90% of growth or 90% of the strains tested, depending on the study. In the case of `CC(=O)NC[C@H]1CN(c2ccc(-c3ccc(N4CCNC=N4)nc3)c(F)c2)C(=O)O1` [Compound 53], the MIC90 with Enterococcus faecalis (Enterococcus faecalis) was 1 µg/mL (≈ 2.42 µM); with Enterococcus faecium (Enterococcus faecium), 1 µg/mL (≈ 2.42 µM); in [1] (Enterococcus faecalis), 4 µg/mL (≈ 9.7 µM); in assay [2] (Enterococcus faecium), 4 µg/mL (≈ 9.7 µM); in assay [3] (Enterococcus faecium) it was 4 µg/mL (≈ 9.7 µM); in assay [4] (Staphylococcus aureus) it was 2 µg/mL (≈ 4.85 µM). In addition, the MIC90 came out at 2 µg/mL (≈ 4.85 µM) in assay [5] (Staphylococcus epidermidis); 4 µg/mL (≈ 9.7 µM) against Moraxella catarrhalis (Moraxella catarrhalis); 1 µg/mL (≈ 2.42 µM) against Staphylococcus aureus (Staphylococcus aureus); 1 µg/mL (≈ 2.42 µM) in assay [6] (Staphylococcus epidermidis); 1 µg/mL (≈ 2.42 µM) in [7] (Enterococcus faecalis); 1 µg/mL (≈ 2.42 µM) in [8] (Enterococcus faecium).
With `O=C(CO)N1CCN(c2ccc(-c3ccc(N4C[C@H](CNc5ccon5)OC4=O)cc3F)cn2)C=N1` [Compound 41], the MIC90 in the assay on Enterococcus faecalis (strain 5, E. faecalis) stood at 0.5 µg/mL (≈ 1.01 µM); against Enterococcus faecium (strain 8, E. faecium) it was 0.125 µg/mL (≈ 0.252 µM); in [1] (strain 7, E. faecalis VanA LR), 2 µg/mL (≈ 4.04 µM); in assay [2] (strain 10, E. faecium VanA LR), 4 µg/mL (≈ 8.07 µM); in [3] (strain 11, E. faecium VanA LR) it was 4 µg/mL (≈ 8.07 µM); in assay [4] (strain 2, S. aureus MR) it was 0.25 µg/mL (≈ 0.505 µM). The MIC90 in assay [5] (strain 4, S. epidermidis MR) came to 2 µg/mL (≈ 4.04 µM); against Moraxella catarrhalis (strain 12, M. catarrhalis), 2 µg/mL (≈ 4.04 µM); in the assay on Staphylococcus aureus (strain 1, S. aureus), 0.25 µg/mL (≈ 0.505 µM); in [6] (strain 3, S. epidermidis) it was 0.5 µg/mL (≈ 1.01 µM); in assay [7] (strain 6, E. faecalis VanA) it was 1 µg/mL (≈ 2.02 µM); in assay [8] (strain 9, E. faecium VanA), 0.5 µg/mL (≈ 1.01 µM).
For `CCN1C=NN(c2ccc(-c3ccc(N4C[C@H](CNC(C)=O)OC4=O)cc3F)cn2)CC1` [Compound 56], the MIC90 in the assay on Enterococcus faecalis (setting [9]) is 1 µg/mL (≈ 2.27 µM); in the assay with Enterococcus faecium (setting [10]) it was 1 µg/mL (≈ 2.27 µM); in [1] (setting [11]), 4 µg/mL (≈ 9.08 µM); in assay [2] (setting [12]) it was 4 µg/mL (≈ 9.08 µM); in assay [3] (setting [13]) it was 4 µg/mL (≈ 9.08 µM); in [4] (setting [14]), 4 µg/mL (≈ 9.08 µM). The MIC90 in [5] (setting [15]) is 2 µg/mL (≈ 4.54 µM); in the assay on Moraxella catarrhalis (setting [16]), 2 µg/mL (≈ 4.54 µM); in the assay on Staphylococcus aureus (setting [17]) it was 1 µg/mL (≈ 2.27 µM); in assay [6] (setting [18]) it was 1 µg/mL (≈ 2.27 µM); in assay [7] (setting [19]), 2 µg/mL (≈ 4.54 µM); in [8] (setting [20]), 1 µg/mL (≈ 2.27 µM).
On to `COC(=O)NC[C@H]1CN(c2ccc(-c3ccc(N4C=NN(C)CC4)nc3)c(F)c2)C(=O)O1` [Compound 24], for which the MIC90 against Enterococcus faecalis (Enterococcus faecalis) turned out to be 1 µg/mL (≈ 2.26 µM); in the assay with Enterococcus faecium (Enterococcus faecium) it was 0.5 µg/mL (≈ 1.13 µM); in [1] (Enterococcus faecalis), 4 µg/mL (≈ 9.04 µM); in assay [2] (Enterococcus faecium), 4 µg/mL (≈ 9.04 µM); in [3] (Enterococcus faecium), 8 µg/mL (≈ 18.1 µM); in [4] (Staphylococcus aureus), 1 µg/mL (≈ 2.26 µM). In addition, the MIC90 in [5] (Staphylococcus epidermidis) amounted to 2 µg/mL (≈ 4.52 µM); in the assay on Moraxella catarrhalis (Moraxella catarrhalis), 4 µg/mL (≈ 9.04 µM); in the assay on Staphylococcus aureus (Staphylococcus aureus) it was 0.5 µg/mL (≈ 1.13 µM); in assay [6] (Staphylococcus epidermidis) it was 0.5 µg/mL (≈ 1.13 µM); in assay [7] (Enterococcus faecalis), 1 µg/mL (≈ 2.26 µM); in assay [8] (Enterococcus faecium), 0.5 µg/mL (≈ 1.13 µM).
With `O=C(CO)N1CCN(c2ccc(-c3ccc(N4C[C@H](COc5ccon5)OC4=O)cc3F)cn2)C=N1` [Compound 46], the MIC90 in the assay with Enterococcus faecalis (strain 5, E. faecalis) is 2 µg/mL (≈ 4.03 µM); against Enterococcus faecium (strain 8, E. faecium), 0.5 µg/mL (≈ 1.01 µM); in assay [1] (strain 7, E. faecalis VanA LR), 128 µg/mL (≈ 258 µM); in [2] (strain 10, E. faecium VanA LR), 128 µg/mL (≈ 258 µM); in assay [3] (strain 11, E. faecium VanA LR) it was >128 µg/mL; in assay [4] (strain 2, S. aureus MR) it was 0.5 µg/mL (≈ 1.01 µM). For the same compound, the MIC90 in [5] (strain 4, S. epidermidis MR) was 32 µg/mL (≈ 64.5 µM); in the assay on Moraxella catarrhalis (strain 12, M. catarrhalis), >128 µg/mL; against Staphylococcus aureus (strain 1, S. aureus), 0.25 µg/mL (≈ 0.504 µM); in assay [6] (strain 3, S. epidermidis) it was 0.5 µg/mL (≈ 1.01 µM); in [7] (strain 6, E. faecalis VanA), 4 µg/mL (≈ 8.06 µM); in assay [8] (strain 9, E. faecium VanA), 2 µg/mL (≈ 4.03 µM).
Consider `O=C(C(O)CO)N1CCN(c2ccc(-c3ccc(N4C[C@H](COc5ccon5)OC4=O)cc3F)cn2)C=N1` (stereo partly drawn) [Compound 50], for which the MIC90 against Enterococcus faecalis (strain 5, E. faecalis) came out at 2 µg/mL (≈ 3.8 µM); in the assay on Enterococcus faecium (strain 8, E. faecium) it was 0.5 µg/mL (≈ 0.95 µM); in assay [1] (strain 7, E. faecalis VanA LR), 16 µg/mL (≈ 30.4 µM); in assay [2] (strain 10, E. faecium VanA LR) it was 16 µg/mL (≈ 30.4 µM); in [3] (strain 11, E. faecium VanA LR), 32 µg/mL (≈ 60.8 µM); in assay [4] (strain 2, S. aureus MR), 1 µg/mL (≈ 1.9 µM). For the same compound, the MIC90 in [5] (strain 4, S. epidermidis MR) is 4 µg/mL (≈ 7.6 µM); against Moraxella catarrhalis (strain 12, M. catarrhalis), >128 µg/mL; in the assay on Staphylococcus aureus (strain 1, S. aureus) it was 0.5 µg/mL (≈ 0.95 µM); in assay [6] (strain 3, S. epidermidis), 1 µg/mL (≈ 1.9 µM); in [7] (strain 6, E. faecalis VanA), 4 µg/mL (≈ 7.6 µM); in assay [8] (strain 9, E. faecium VanA) it was 2 µg/mL (≈ 3.8 µM).
Consider `CC(=O)NC[C@H]1CN(c2ccc(-c3ccc(N4C=NN(C(=O)C(O)CO)CC4)nc3)c(F)c2)C(=O)O1` (stereo partly drawn) [Compound 21], for which the MIC90 with Enterococcus faecalis (setting [9]) was found to be 1 µg/mL (≈ 2 µM); with Enterococcus faecium (setting [10]) it was 0.5 µg/mL (≈ 0.999 µM); in assay [1] (setting [11]) it was 2 µg/mL (≈ 4 µM); in assay [2] (setting [12]), 2 µg/mL (≈ 4 µM); in [3] (setting [13]) it was 4 µg/mL (≈ 7.99 µM); in [4] (setting [14]), 1 µg/mL (≈ 2 µM). Moreover, the MIC90 in [5] (setting [15]) turned out to be 1 µg/mL (≈ 2 µM); in the assay on Moraxella catarrhalis (setting [16]) it was 4 µg/mL (≈ 7.99 µM); in the assay with Staphylococcus aureus (setting [17]) it was 0.25 µg/mL (≈ 0.5 µM); in [6] (setting [18]), 0.5 µg/mL (≈ 0.999 µM); in assay [7] (setting [19]) it was 1 µg/mL (≈ 2 µM); in assay [8] (setting [20]) it was 0.5 µg/mL (≈ 0.999 µM).

Source of the values: patent US8846669B2, “Oxazolidinone derivative and medical composition containing same” (Legochem Biosciences, Inc., priority 2011, dated 2014).
